From patent EP0025288A1, “Derivatives of monic acid, processes for their preparation, compositions containing them and their preparation” (priority 1979, dated 1981)
In brackets after ≈: the same amount, converted by molar mass.

Tests used:
M. suipneumoniae JF 435 = assay: MIC, anti-mycoplasmal, Friis broth solidified with 0.9% agarose; type: cell-based; conditions: Mesomycoplasma hyopneumoniae, JF435, 144 h, inoculum 10^3 to 10^5 C.F.U., 6 days incubation at 37°C, read-out: in vitro MIC
[1] = test system: Strep suis (group D) SPS11; assay: MIC, veterinary bacteria; type: cell-based; conditions: veterinary bacteria (Table 2), read-out: MIC
S typhimurium S18 = assay: MIC, veterinary bacteria; type: cell-based; conditions: veterinary bacteria (Table 2), read-out: MIC
E coli NCTC 10418 = assay: MIC, veterinary bacteria; type: cell-based; conditions: veterinary bacteria (Table 2), read-out: MIC
Strep dysgalaciae SPD1 = assay: MIC, veterinary bacteria; type: cell-based; conditions: veterinary bacteria (Table 2), read-out: MIC
[2] = test system: M. bovigenitalium ATCC 14173; assay: MIC, anti-mycoplasmal, Friis broth solidified with 0.9% agarose; type: cell-based; conditions: 144 h, inoculum 10^3 to 10^5 C.F.U., 6 days incubation at 37°C, read-out: in vitro MIC
M. suipneumoniae MS 16 = assay: as above; type: cell-based; conditions: Mesomycoplasma hyopneumoniae, MS16, 144 h, inoculum 10^3 to 10^5 C.F.U., 6 days incubation at 37°C, read-out: in vitro MIC
[3] = Serum binding by ultrafiltration; type: in vitro ADME, pig; conditions: pig, serum, compounds at 8 mcg/ml, microbiological assay (B. subtilis ATCC 6633), read-out: % bound to pig serum (converted)
Method: Serum binding was assessed by ultrafiltration of procine serum containing compounds at 8 mcg/ml, and through an Amicon CF50A ultrafiltration cone. Separation of ultrafiltrate was achieved by centrifugation.

[4] = test system: M. hyosynoviae ATCC 25591; assay: MIC, anti-mycoplasmal, Friis broth solidified with 0.9% agarose; type: cell-based; conditions: 144 h, inoculum 10^3 to 10^5 C.F.U., 6 days incubation at 37°C, read-out: in vitro MIC
M. suipneumoniae Str. 11 = assay: as above; type: cell-based; conditions: Mesomycoplasma hyopneumoniae, 144 h, inoculum 10^3 to 10^5 C.F.U., 6 days incubation at 37°C, read-out: in vitro MIC
E coli E1 = assay: MIC, veterinary bacteria; type: cell-based; conditions: veterinary bacteria (Table 2), read-out: MIC
Bord bronchiseptica BO8 = assay: MIC, veterinary bacteria; type: cell-based; conditions: veterinary bacteria (Table 2), read-out: MIC
M. suipneumoniae TAM 6N = assay: MIC, anti-mycoplasmal, Friis broth solidified with 0.9% agarose; type: cell-based; conditions: Mesomycoplasma hyopneumoniae, TAM6N, 144 h, inoculum 10^3 to 10^5 C.F.U., 6 days incubation at 37°C, read-out: in vitro MIC
[5] = test system: Erysipelothrix rhusiopathiae NCTC 8163; assay: MIC, veterinary bacteria; type: cell-based; conditions: NCTC8163, veterinary bacteria (Table 2), read-out: MIC
M. suipneumoniae NB12 = assay: MIC, anti-mycoplasmal, Friis broth solidified with 0.9% agarose; type: cell-based; conditions: Mesomycoplasma hyopneumoniae, 144 h, inoculum 10^3 to 10^5 C.F.U., 6 days incubation at 37°C, read-out: in vitro MIC
M. dispar NCTC 10125 = assay: as above; type: cell-based; conditions: 144 h, inoculum 10^3 to 10^5 C.F.U., 6 days incubation at 37°C, read-out: in vitro MIC
[6] = test system: Staph aureus 152 (pen sens); assay: MIC, veterinary bacteria; type: cell-based; conditions: Staphylococcus aureus, veterinary bacteria (Table 2), read-out: MIC
Staph aureus Oxford = assay: MIC, veterinary bacteria; type: cell-based; conditions: Staphylococcus aureus, veterinary bacteria (Table 2), read-out: MIC
Strep uberis SPU1 = assay: MIC, veterinary bacteria; type: cell-based; conditions: veterinary bacteria (Table 2), read-out: MIC
Bord bronchisptica BO9 = assay: MIC, veterinary bacteria; type: cell-based; conditions: veterinary bacteria (Table 2), read-out: MIC
Past Haemolytica PA5 = assay: MIC, veterinary bacteria; type: cell-based; conditions: veterinary bacteria (Table 2), read-out: MIC
[7] = test system: M. suipneumoniae NCTC 10110; assay: MIC, anti-mycoplasmal, Friis broth solidified with 0.9% agarose; type: cell-based; conditions: Mesomycoplasma hyopneumoniae, NCTC10110, 144 h, inoculum 10^3 to 10^5 C.F.U., 6 days incubation at 37°C, read-out: in vitro MIC
S dublin S7 = assay: MIC, veterinary bacteria; type: cell-based; conditions: veterinary bacteria (Table 2), read-out: MIC
M. pneumoniae ATCC 15492 = assay: MIC, anti-mycoplasmal, Friis broth solidified with 0.9% agarose; type: cell-based; conditions: Mycoplasmoides pneumoniae, ATCC15492, 144 h, inoculum 10^3 to 10^5 C.F.U., 6 days incubation at 37°C, read-out: in vitro MIC
M. gallisepticum S6 = assay: as above; type: cell-based; conditions: Mycoplasmoides gallisepticum, 144 h, inoculum 10^3 to 10^5 C.F.U., 6 days incubation at 37°C, read-out: in vitro MIC
Past multocida PA1 = assay: MIC, veterinary bacteria; type: cell-based; conditions: veterinary bacteria (Table 2), read-out: MIC
M. hyorhinis ATCC 23234 = assay: MIC, anti-mycoplasmal, Friis broth solidified with 0.9% agarose; type: cell-based; conditions: Mesomycoplasma hyorhinis, ATCC23234, 144 h, inoculum 10^3 to 10^5 C.F.U., 6 days incubation at 37°C, read-out: in vitro MIC
[8] = test system: M. suipneumoniae J2206/183b; assay: as above; type: cell-based; conditions: Mesomycoplasma hyopneumoniae, 144 h, inoculum 10^3 to 10^5 C.F.U., 6 days incubation at 37°C, read-out: in vitro MIC
Strep agalactiae SPA1 = assay: MIC, veterinary bacteria; type: cell-based; conditions: veterinary bacteria (Table 2), read-out: MIC
M. bovis NCTC 10131 = assay: microbe, parasite or virus in culture; type: cell-based; conditions: NCTC10131, 144 h, read-out: in vitro MIC
M. hyorhinis ATCC 25021 = assay: MIC, anti-mycoplasmal, Friis broth solidified with 0.9% agarose; type: cell-based; conditions: Mesomycoplasma hyorhinis, ATCC25021, 144 h, inoculum 10^3 to 10^5 C.F.U., 6 days incubation at 37°C, read-out: in vitro MIC
M. suipneumoniae HK(2) = assay: as above; type: cell-based; conditions: Mesomycoplasma hyopneumoniae, 144 h, inoculum 10^3 to 10^5 C.F.U., 6 days incubation at 37°C, read-out: in vitro MIC
[9] = test system: Staph aureus B4 (pen resis); assay: MIC, veterinary bacteria; type: cell-based; conditions: Staphylococcus aureus, veterinary bacteria (Table 2), read-out: MIC
Past multocida PA2 = assay: MIC, veterinary bacteria; type: cell-based; conditions: veterinary bacteria (Table 2), read-out: MIC
[10] = test system: M. suipneumoniae PW/C/210; assay: MIC, anti-mycoplasmal, Friis broth solidified with 0.9% agarose; type: cell-based; conditions: Mesomycoplasma hyopneumoniae, 144 h, inoculum 10^3 to 10^5 C.F.U., 6 days incubation at 37°C, read-out: in vitro MIC
[11] = test system: Corynebacterium pyogenes CY1; assay: MIC, veterinary bacteria; type: cell-based; conditions: veterinary bacteria (Table 2), read-out: MIC
M. suipneumoniae LABER = assay: MIC, anti-mycoplasmal, Friis broth solidified with 0.9% agarose; type: cell-based; conditions: Mesomycoplasma hyopneumoniae, 144 h, inoculum 10^3 to 10^5 C.F.U., 6 days incubation at 37°C, read-out: in vitro MIC
M. suipneumoniae UCD 1 = assay: as above; type: cell-based; conditions: Mesomycoplasma hyopneumoniae, UCD1, 144 h, inoculum 10^3 to 10^5 C.F.U., 6 days incubation at 37°C, read-out: in vitro MIC
[12] = test system: M. suipneumoniae ATCC 25095; assay: as above; type: cell-based; conditions: Mesomycoplasma hyopneumoniae, ATCC25095, 144 h, inoculum 10^3 to 10^5 C.F.U., 6 days incubation at 37°C, read-out: in vitro MIC

For `CC(=O)Nc1ccc(C(=O)CCCOC(=O)C=C(C)CC2OCC(CC3OC3C(C)C(C)O)C(O)C2O)cc1` (stereo not drawn) [Example 9, 4-(4-Acetamidophenyl)-4-oxobutyl monate A], the MIC (M. suipneumoniae JF 435) was 0.5 µg/mL (≈ 0.913 µM), the MIC [1] was 2.5 µg/mL (≈ 4.57 µM) and the MIC (S typhimurium S18) was > 80 µg/mL. For the same molecule, the MIC (E coli NCTC 10418) was > 80 µg/mL, the MIC (Strep dysgalaciae SPD1) was 0.156 µg/mL (≈ 0.285 µM) and the MIC [2] was 0.05 µg/mL (≈ 0.0913 µM). It also gave an MIC (M. suipneumoniae MS 16) of 0.25 µg/mL (≈ 0.457 µM), a fraction unbound [3] of 0.138 and an MIC [4] of 0.1 µg/mL (≈ 0.183 µM). The MIC (M. suipneumoniae Str. 11) was 0.25 µg/mL (≈ 0.457 µM), the MIC (E coli E1) was > 80 µg/mL and the MIC (Bord bronchiseptica BO8) was > 80 µg/mL. The MIC (M. suipneumoniae TAM 6N) was 0.5 µg/mL (≈ 0.913 µM), the MIC [5] was 20 µg/mL (≈ 36.5 µM) and the MIC (M. suipneumoniae NB12) was 0.5 µg/mL (≈ 0.913 µM). The MIC (M. dispar NCTC 10125) was 0.1 µg/mL (≈ 0.183 µM), the MIC [6] was 0.625 µg/mL (≈ 1.14 µM) and the MIC (Staph aureus Oxford) was 0.625 µg/mL (≈ 1.14 µM). The MIC (Strep uberis SPU1) was 0.156 µg/mL (≈ 0.285 µM), the MIC (Bord bronchisptica BO9) was 20 µg/mL (≈ 36.5 µM) and the MIC (Past Haemolytica PA5) was 20 µg/mL (≈ 36.5 µM). The MIC [7] was 0.5 µg/mL (≈ 0.913 µM), the MIC (S dublin S7) was > 80 µg/mL and the MIC (M. pneumoniae ATCC 15492) was 0.5 µg/mL (≈ 0.913 µM). The MIC (M. gallisepticum S6) was 2.5 µg/mL (≈ 4.57 µM), the MIC (Past multocida PA1) was 2.5 µg/mL (≈ 4.57 µM) and the MIC (M. hyorhinis ATCC 23234) was 0.25 µg/mL (≈ 0.457 µM). The MIC [8] was 0.5 µg/mL (≈ 0.913 µM), the MIC (Strep agalactiae SPA1) was 0.625 µg/mL (≈ 1.14 µM) and the MIC (M. bovis NCTC 10131) was ≤ 0.01 µg/mL. For the same molecule, the MIC (M. hyorhinis ATCC 25021) was 0.25 µg/mL (≈ 0.457 µM), the MIC (M. suipneumoniae HK(2)) was 0.5 µg/mL (≈ 0.913 µM) and the MIC [9] was 1.25 µg/mL (≈ 2.28 µM). The MIC (Past multocida PA2) was 0.625 µg/mL (≈ 1.14 µM), the MIC [10] was 0.25 µg/mL (≈ 0.457 µM) and the MIC [11] was > 80 µg/mL. For the same molecule, the MIC (M. suipneumoniae LABER) was 0.25 µg/mL (≈ 0.457 µM), the MIC (M. suipneumoniae UCD 1) was 0.5 µg/mL (≈ 0.913 µM) and the MIC [12] was 0.5 µg/mL (≈ 0.913 µM).
